The numbers were not newly measured in patent US20240173315A1 (OWP Pharmaceuticals, Inc., priority 2022, published 2024), which cites them from elsewhere.

Structures can show the parent of a compound that is named as a salt. Where two headings read alike, the source gives them in different places.

For data set [1] the following is noted: humans, oral.
The conditions of data set [2]: oral dose.
Another data set addresses T1, CYP3A4 (Homo sapiens, UniProt P08684).
T1 construct: In vitro studies in human liver microsomes; from tissue; host or cells: human liver microsomes
Conditions: in vitro.

T1 sequence (P08684 whole entry): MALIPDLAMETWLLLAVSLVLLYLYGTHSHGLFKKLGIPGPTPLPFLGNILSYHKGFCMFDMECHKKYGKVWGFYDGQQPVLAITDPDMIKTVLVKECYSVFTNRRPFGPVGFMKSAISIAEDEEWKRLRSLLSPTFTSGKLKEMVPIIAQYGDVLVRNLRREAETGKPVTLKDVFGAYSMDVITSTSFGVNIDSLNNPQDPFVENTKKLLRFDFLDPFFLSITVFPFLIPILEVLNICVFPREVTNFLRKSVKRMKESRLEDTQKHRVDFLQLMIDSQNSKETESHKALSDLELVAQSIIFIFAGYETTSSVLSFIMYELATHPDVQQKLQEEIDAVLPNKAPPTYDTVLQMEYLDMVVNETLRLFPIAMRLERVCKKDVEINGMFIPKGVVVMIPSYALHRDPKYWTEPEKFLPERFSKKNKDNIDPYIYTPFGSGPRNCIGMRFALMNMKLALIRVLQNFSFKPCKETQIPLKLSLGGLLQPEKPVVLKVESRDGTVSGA

In the case of `O=c1n(CCCN2CCN(c3cccc(Cl)c3)CC2)nc2ccccn12` [trazodone hydrochloride], the results for the “time after dosing at which peak plasma levels occur” value in data set [1] (taken on an empty stomach) and in data set [1] (taken with food) were “approximately one” and around 2 h, respectively. In data set [1] (taken shortly after ingestion of food), the “effect of food on amount of drug absorbed” value is given as “increase”.
Turning to `O=c1n(CCCN2CCN(c3cccc(Cl)c3)CC2)nc2ccccn12` [trazodone, 2-{3-[4-(3-chlorophenyl)piperazin-1-yl]propyl}[1,2,4]triazolo[4,3-a]pyridin-3(2H)-one], the “excreted unchanged in the urine” value in data set [2] is “less than 1 % of an oral dose”. For the same compound, on CYP3A4, the “metabolism in human liver microsomes” value is “metabolized, via oxidative cleavage, to an active metabolite, m-chlorophenvlpipera.zine (mCPP) by CYP3A4”.
